US20240016812A1, “COMPOSITION FOR PREVENTING, ALLEVIATING OR TREATING CANCER” (CKP Therapeutics, Inc., priority 2021, published 2024)

How the values were obtained:
YUMC-C1 cell line [1] = conditions: 200 μM, drug alone
Description: Each of the YUMC-C1, YUMC-H2 and YUMC-P1 cell lines of Example 1 was inoculated into 96-well plates at a density of 6×10^3 cells/well and then cultured overnight to a confluence of 90%. […] However, when hydroflumethiazide was used in combination with oxaliplatin or sorafenib, the treatment concentration of each of oxaliplatin and sorafenib was 30 μM. Thereafter, cell viability was measured using the MTT reagent. The absorbance was measured at 550 nm, and viable cells were counted using trypan blue staining.

YUMC-C1 cell line [2] = conditions: YUMC-C1 xenograft mice; oral, 13 times for 41 days; doses of Table 3; vs control group
Description: (§1) 15 days after injection of each of the cell lines, when the tumor volume reached about 100 to 200 mm^3, mice having a tumor with the above volume were randomly grouped (n=10/group), and then each drug was administered to the mice 13 times for a total of 41 days under the conditions shown in Table 3 below. Then, the changes in tumor volume during this administration were measured, and the results of the measurement are shown in FIG. 3. In addition, the tumor was extracted and the net weight of the tumor was measured, and the results of the measurement are shown in FIG. 4. Here, nothing was administered to the control group.

YUMC-P1 cell line [3] = experiment: MTT cell viability of anticancer drug-resistant cancer cell line; format: cell-based, human; conditions: 200 μM, drug alone
YUMC-H2 cell line [4] = conditions: YUMC-H2 xenograft mice; oral, 13 times for 41 days; doses of Table 3
Description: as §1

YUMC-P1 cell line [5] = conditions: YUMC-P1 xenograft mice; oral, 13 times for 41 days; doses of Table 3
Description: as §1

YUMC-H2 cell line [6] = experiment: MTT cell viability of anticancer drug-resistant cancer cell line; format: cell-based, human; conditions: 200 μM, drug alone

Compound | cells survived (YUMC-C1 cell line [1]) | net tumor weight (YUMC-C1 cell line [2]) | tumor volume (YUMC-C1 cell line [2]) | cells survived (YUMC-P1 cell line [3]) | net tumor weight (YUMC-H2 cell line [4]) | tumor volume (YUMC-H2 cell line [4]) | net tumor weight (YUMC-P1 cell line [5]) | tumor volume (YUMC-P1 cell line [5]) | cells survived (YUMC-H2 cell line [6])
O=C1[O][Pt]2([NH][C@@H]3CCCC[C@H]3[NH]2)[O]C1=O [oxaliplatin] | more than 80% | did not significantly decrease | did not significantly decrease | – | – | – | – | – | –
CNC(=O)c1cc(Oc2ccc(NC(=O)Nc3ccc(Cl)c(C(F)(F)F)c3)cc2)ccn1 [sorafenib] | – | – | – | more than 80% | no significant changes | no significant changes | no significant changes | no significant changes | more than 80%
